Where two headings read alike, the source gives them in different places.
What was measured:
Format in all cases: biochemical
[1] = target: T1, mouse PDGF-β receptor tyrosine kinase (Mus musculus, UniProt P05622); experiment: PDGF receptor tyrosine kinase assay (32P incorporation into glutamate-tyrosine co-polymer); details: for IC50: read-out: PDGFr-TK IC50; for inhibition at 50 µM: read-out: PDGFr-TK % Inhibition at 50 µM
T1 construct: amplify a fragment of DNA that codes for the intracellular tyrosine kinase domain; made in house; host or cells: SF9 insect cells (baculovirus)
Excerpt: (§1) Full length cDNAs for the mouse PDGF-β and human FGF-1 (flg) receptor tyrosine kinases were obtained from J. Escobedo and prepared as described in J. Biol. Chem., 262:1482-1487 […], and PCR primers were designed to amplify a fragment of DNA that codes for the intracellular tyrosine kinase domain. The fragment was melded into a baculovirus vector, cotransfected with AcMNPV DNA, and the recombinant virus isolated. SF9 insect cells were infected with the virus to overexpress the protein, and the cell lysate was used for the assay. The assay was performed in 96-well plates (100 µL/incubation/well), and conditions were optimized to measure the incorporation of ^32P from γ^32P-ATP into a glutamate-tyrosine co-polymer substrate. Briefly, to each well was added 82.5 µL of incubation buffer containing 25 mM Hepes (pH 7.0), 150 mM NaCl, 0.1% Triton X-100, 0.2 mM PMSF, 0.2 mM Na3VO4, 10 mM MnCl2, and 750 µg/mL of Poly (4:1) glutamate-tyrosine followed by 2.5 µL of inhibitor and 5µL of enzyme lysate (7.5 µg/µL FGF-TK or 6.0 µg/µL PDGF-TK) to initiate the reaction. Following a 10 minute incubation at 25°C, 10 µL of γ^32P-ATP (0.4 µCi plus 50 µM ATP) was added to each well and samples were incubated for an additional 10 minutes at 25°C. The reaction was terminated by the addition of 100 µL of 30% trichloroacetic acid (TCA) containing 20 mM sodium pyrophosphate and precipitation of material onto glass fiber filter mats (Wallac). […] Nonspecific activity was defined as radioactivity retained on the filters following incubation of samples with buffer alone (no enzyme). Specific enzymatic activity was defined as total activity (enzyme plus buffer) minus nonspecific activity.

[2] = target: T2, human FGF-1 (flg) receptor tyrosine kinase (Homo sapiens, UniProt P11362); experiment: FGF receptor tyrosine kinase assay (32P incorporation into glutamate-tyrosine co-polymer); details: for inhibition at 50 µM: read-out: FGFr-TK % Inhibition at 50 µM
T2 construct: amplify a fragment of DNA that codes for the intracellular tyrosine kinase domain; made in house; host or cells: SF9 insect cells (baculovirus)
Excerpt: as §1

C-src kinase = target: T3, C-src kinase (Homo sapiens, UniProt P12931); experiment: C-src kinase assay (poly GluTyr substrate); details: for inhibition at 50 µM: read-out: C-src TK % Inhibition at 50 µM
T3 construct: made in house; host or cells: baculovirus infected insect cells
Description: V-src or C-src kinase is purified from baculovirus infected insect cell lysates using an antipeptide monoclonal antibody directed against the N-terminal 2-17 amino acids. The antibody, covalently linked to 0.65-µm latex beads, is added to a suspension of insect cell lysis buffer comprised of 150 mM NaCl, 50 mM Tris pH 7.5, 1 mM DTT, 1% NP-40, 2 mM EGTA, 1 mM sodium vanadate, 1 mM PMSF, 1 µg/mL each of leupeptin, pepstatin, and aprotinin. […] At the end of the lysate incubation, the beads are rinsed 3 times in lysis buffer, resuspended in lysis buffer containing 10% glycerol, and frozen. These latex beads are thawed, rinsed 3 times in assay buffer which is comprised of 40 mM tris pH 7.5, 5 mM MgCl2, and suspended in the same buffer. In a Millipore 96-well plate with a 0.65 µm polyvinylidine membrane bottom are added the reaction components: 10-µL V-src or C-src beads, 10 µL of 2.5 mg/mL poly GluTyr substrate, 5 µM ATP containing 0.2 µCi labeled ^32P-ATP, 5µL DMSO containing inhibitors or as a solvent control, and buffer to make the final volume 125 µL. The reaction is started at room temperature by addition of the ATP and quenched 10 minutes later by the addition of 125 µL of 30% TCA, 0.1 M sodium pyrophosphate for 5 minutes on ice. […] The filters are punched, counted in a liquid scintillation counter, and the data examined for inhibitory activity in comparison to a known inhibitor such as erbstatin.

[3] = target: T4, Human EGF receptor tyrosine kinase (Homo sapiens, UniProt P00533); experiment: EGF receptor tyrosine kinase enzyme assay (substrate peptide phosphorylation); details: for IC50: read-out: EGF-FL IC50; for inhibition at 50 µM: read-out: EGF-FL % Inhibition at 50 µM
T4 construct: Human EGF receptor tyrosine kinase was isolated from A431 epidermoid carcinoma cells; endogenous in cells; host or cells: A431 epidermoid carcinoma cells
Description: Human EGF receptor tyrosine kinase was isolated from A431 epidermoid carcinoma cells by the following methods. Cells were grown in roller bottles in 50% Dulbecco's Modified Eagle medium and 50% HAM F-12 nutrient media (Gibco) containing 10% fetal calf serum. Approximately 10^9 cells were lysed in two volumes of buffer containing 20 mM 2-(4N-[2-hydroxymethyl]-piperazin-1-yl)ethanesulfonic acid, pH 7.4, 5 mM ethylene glycol bis(2-aminoethyl ether) N,N,N',N'-tetraacetic acid, 1% Triton X-100, 10% glycerol, 0.1 mM sodium orthovanadate, 5 mM sodium fluoride, 4 mM pyrophosphate, 4 mM benzamide, 1 mM dithiothreitol, 80 µg/mL aprotinin, 40 µg/mL leupeptin, and 1 mM phenylmethylsulfonyl fluoride. […] Contaminating proteins were washed from the resin with 1 M NaCl in equilibration buffer, and the enzyme was eluted with 0.5 M N-acetyl-1-D-glucosamine in equilibration buffer.
The reaction was terminated by the addition of 2 mL of 75 mM phosphoric acid and passed through a 2.5-cm phosphocellulose filter disc to bind the peptide. The filter was washed 5 times with 75 mM phosphoric acid and placed in a vial along with 5 mL of scintillation fluid (Ready gel Heckman).

T2 sequence (P11362 478-767 limits assumed): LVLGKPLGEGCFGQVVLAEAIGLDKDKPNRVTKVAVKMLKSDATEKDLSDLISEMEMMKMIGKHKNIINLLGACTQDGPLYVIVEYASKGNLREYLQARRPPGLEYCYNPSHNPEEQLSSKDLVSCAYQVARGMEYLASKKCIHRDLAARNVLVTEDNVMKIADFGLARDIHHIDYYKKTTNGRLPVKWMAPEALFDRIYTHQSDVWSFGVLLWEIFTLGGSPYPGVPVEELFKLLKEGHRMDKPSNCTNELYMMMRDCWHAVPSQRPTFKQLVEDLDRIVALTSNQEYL
T4 sequence (P00533 25-1210): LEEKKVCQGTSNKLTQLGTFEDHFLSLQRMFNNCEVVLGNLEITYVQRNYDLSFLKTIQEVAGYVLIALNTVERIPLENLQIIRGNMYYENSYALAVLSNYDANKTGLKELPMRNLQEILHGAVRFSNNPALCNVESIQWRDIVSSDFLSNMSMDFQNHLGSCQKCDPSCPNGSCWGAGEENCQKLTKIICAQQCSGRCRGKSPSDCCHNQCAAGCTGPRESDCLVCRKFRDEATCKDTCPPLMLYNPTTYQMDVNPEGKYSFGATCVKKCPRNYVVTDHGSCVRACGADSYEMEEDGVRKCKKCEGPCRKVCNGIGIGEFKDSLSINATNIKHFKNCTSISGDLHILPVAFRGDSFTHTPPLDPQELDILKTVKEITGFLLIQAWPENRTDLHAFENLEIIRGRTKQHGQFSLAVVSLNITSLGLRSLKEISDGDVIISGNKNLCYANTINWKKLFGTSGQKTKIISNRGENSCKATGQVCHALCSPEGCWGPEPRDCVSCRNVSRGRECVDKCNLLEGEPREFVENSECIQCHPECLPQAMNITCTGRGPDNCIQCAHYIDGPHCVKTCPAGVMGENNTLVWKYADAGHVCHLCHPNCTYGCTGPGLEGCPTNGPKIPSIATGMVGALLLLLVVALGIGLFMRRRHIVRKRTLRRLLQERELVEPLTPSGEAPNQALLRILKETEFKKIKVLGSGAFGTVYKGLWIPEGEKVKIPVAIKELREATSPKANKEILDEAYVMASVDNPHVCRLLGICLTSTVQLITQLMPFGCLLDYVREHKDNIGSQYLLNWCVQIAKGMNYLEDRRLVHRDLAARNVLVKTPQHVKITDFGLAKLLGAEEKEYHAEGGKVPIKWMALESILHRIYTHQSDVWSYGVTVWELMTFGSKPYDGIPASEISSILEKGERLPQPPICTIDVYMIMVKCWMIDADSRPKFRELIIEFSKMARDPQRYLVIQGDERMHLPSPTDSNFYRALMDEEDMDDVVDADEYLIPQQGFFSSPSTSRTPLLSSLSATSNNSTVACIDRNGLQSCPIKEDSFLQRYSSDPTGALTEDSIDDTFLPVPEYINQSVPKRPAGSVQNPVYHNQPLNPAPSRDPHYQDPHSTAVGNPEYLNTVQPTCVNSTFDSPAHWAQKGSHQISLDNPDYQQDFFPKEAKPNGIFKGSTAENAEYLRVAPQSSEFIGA
T1 sequence (P05622 599-961 limits assumed): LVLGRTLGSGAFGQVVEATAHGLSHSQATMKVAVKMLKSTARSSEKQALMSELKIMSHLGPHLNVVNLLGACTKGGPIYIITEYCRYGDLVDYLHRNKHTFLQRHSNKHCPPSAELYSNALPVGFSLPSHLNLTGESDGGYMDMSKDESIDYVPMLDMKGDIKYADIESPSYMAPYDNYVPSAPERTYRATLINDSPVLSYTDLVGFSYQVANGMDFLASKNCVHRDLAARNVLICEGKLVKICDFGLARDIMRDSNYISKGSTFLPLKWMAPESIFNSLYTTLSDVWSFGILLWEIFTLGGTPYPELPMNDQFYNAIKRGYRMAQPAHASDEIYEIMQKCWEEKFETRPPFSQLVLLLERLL
T3 sequence (P12931 whole entry): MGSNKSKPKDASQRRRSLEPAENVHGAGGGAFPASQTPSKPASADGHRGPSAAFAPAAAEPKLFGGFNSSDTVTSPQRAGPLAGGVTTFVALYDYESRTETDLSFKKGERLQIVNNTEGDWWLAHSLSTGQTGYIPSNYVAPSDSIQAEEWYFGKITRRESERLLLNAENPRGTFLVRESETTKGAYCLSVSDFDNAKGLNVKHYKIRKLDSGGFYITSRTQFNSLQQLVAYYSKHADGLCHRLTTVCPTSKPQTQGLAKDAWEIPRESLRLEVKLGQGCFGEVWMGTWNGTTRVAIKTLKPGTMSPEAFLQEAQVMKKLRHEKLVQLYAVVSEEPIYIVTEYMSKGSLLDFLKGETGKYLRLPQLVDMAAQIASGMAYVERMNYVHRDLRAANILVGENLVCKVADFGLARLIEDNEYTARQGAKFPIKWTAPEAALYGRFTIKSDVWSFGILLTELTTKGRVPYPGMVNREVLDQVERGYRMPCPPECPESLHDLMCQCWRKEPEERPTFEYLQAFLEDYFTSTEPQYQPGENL

Compound | IC50 [1] | IC50 ([2]; read-out: FGFr-TK IC50) | IC50 (C-src kinase; read-out: C-src TK IC50) | IC50 [3] | other results
CCn1c(=O)c(-c2c(Cl)cccc2Cl)cc2cnc(Nc3ccc(OC)cc3)nc21 [Example 74, 6-(2,6-Dichlorophenyl)-8-ethyl-2-(4-methoxyphenylamino) -8H-pyrido[2,3-d]pyrimidin-7-one] | 760 nM | 277 nM | 79 nM | 130 nM | 
Cn1c(=O)c(-c2c(Cl)cccc2Cl)cc2cnc(NCCCN3CCOCC3)nc21 [Example 47, 6-(2,6-Dichlorophenyl)-8-methyl-2-(3-morpholin-4-yl-propylamino)-8H-pyrido[2,3-d]pyrimidin-7-one] | 5980 nM |  |  |  | inhibition at 50 µM (C-src kinase): 36%; inhibition at 50 µM [3]: 70%
COC(=O)c1ccc(Cn2c(=O)c(-c3c(Cl)cccc3Cl)cc3cnc(N)nc32)cc1 [Example 110, 4-[2-Amino-6-(2,6-dichlorophenyl)-7-oxo-7H-pyrido[2,3-d]pyrimidin-8-yl-methyl]-benzoic acid methyl ester] |  | 20300 nM | 17200 nM |  | inhibition at 50 µM [1]: 25%; inhibition at 50 µM [3]: 64%
Cc1cccc(C)c1-c1cc2cnc(N)nc2n(C)c1=O [Example 13, 2-Amino-6-(2,6-dimethylphenyl)-8-methyl-pyrido[2,3-d]-pyrimidin-7(8H)-one] | 2560 nM | 6200 nM | 290 nM |  | inhibition at 50 µM [3]: 88%
COC(=O)Cc1ccc(Nc2ncc3cc(-c4c(Cl)cccc4Cl)c(=O)n(C)c3n2)cc1 [Example 84, {4-[6-(2,6-Dichlorophenyl)-8-methyl-7-oxo-7,8-dihydro-pyrido[2,3-d]pyrimidin-2-ylamino]phenyl]-acetic acid, methyl ester] | 390 nM | 250 nM | 23 nM | 630 nM | 
Nc1ncc2cc(-c3c(Cl)cccc3Cl)c(N)nc2n1 [Example 10, 2,7-Diamino-6-(2,6-dichlorophenyl)-pyrido[2,3-d]-pyrimidine] | 21200 nM | 3000 nM |  |  | IC50 (C-src kinase): 225 nM
COc1ccc(Nc2ncc3cc(-c4c(Cl)cccc4Cl)c(=O)n(C)c3n2)cc1 [Example 64, 6-(2,6-Dichlorophenyl)-2-(4-methoxyphenylamino)-8-methyl-8H-pyrido[2,3-d]pyrimidin-7-one] | 546 nM | 403 nM |  | 65 nM | 
CC(=O)Nc1ncc2cc(-c3c(Cl)cccc3Cl)c(=O)n(C)c2n1 [Example 15, N-[6-(2,6-Dichlorophenyl)-8-methyl-7-oxo-7,8-dihydro-pyrido[2,3-d]pyrimidin-2-yl]acetamide] | 5180 nM | 5790 nM | 4220 nM |  | 
Nc1ncc2cc(-c3c(Cl)cccc3Cl)c(=O)n(Cc3ccncc3)c2n1 [Example 113, 2-Amino-6-(2,6-dichlorophenyl)-8-pyridin-4-ylmethyl-8H-pyrido[2,3-d]pyrimidin-7-one] | 1760 nM |  |  | 6700 nM | inhibition at 50 µM (C-src kinase): 87%
Cn1c(=O)c(-c2c(Cl)cccc2Cl)cc2cnc(Nc3cccnc3)nc21 [Example 79, 6-(2,6-Dichlorophenyl)-8-methyl-2-(pyridin-3-ylamino)-8H-pyrido[2,3-d]pyrimidin-7-one] |  |  | 44 nM | 110 nM | IC50 [2]: 172 nM
Cn1c(=O)c(-c2c(Cl)cccc2Cl)cc2cnc(Nc3cccc(O)c3)nc21 [Example 87, 6-(2,6-Dichlorophenyl)-2-(3-hydroxyphenylamino)-8-methyl-8H-pyrido[2,3-d]pyrimidin-7-one] | 350 nM |  |  | 140 nM | 
CN1CCN(CCCCCNc2ncc3cc(-c4c(Cl)cccc4Cl)c(=O)n(C)c3n2)CC1 [Example 81, 6-(2,6-Dichlorophenyl)-8-methyl-2-[5-(4-methylpiperazin-1-yl)-pentylamino]-8H-pyrido[2,3-d]pyrimdin-7-one] | 743 nM |  |  | 4500 nM | inhibition at 50 µM (C-src kinase): 94%
CCn1c(=O)c(-c2ccc(-c3ccccc3)cc2)cc2cnc(Nc3ccccc3)nc21 [Example 124, 6-Biphenyl-4-yl-8-ethyl-2-phenylamino-8H-pyrido[2,3-d]-pyrimidin-7-one] |  |  |  |  | inhibition at 50 µM [1]: 38%; inhibition at 50 µM [2]: 15%; inhibition at 50 µM (C-src kinase): 11%
CCn1c(=O)c(-c2c(Cl)cccc2Cl)cc2cnc(N)nc21 [Example 30, 2-Amino-6-(2,6-dichlorophenyl)-8-ethyl-pyrido[2,3-d]-pyrimidin-7(8H)-one] | 980 nM |  | 155 nM |  | inhibition at 50 µM [3]: 77%
CCOC(=O)c1ccc(Nc2ncc3cc(-c4c(Cl)cccc4Cl)c(=O)n(C)c3n2)cc1 [Example 88, 4-[6-(2,6-Dichlorophenyl)-8-methyl-7-oxo-7,8-dihydro-pyrido[2,3-d]pyrimidin-2-ylamino]-benzoic acid, ethyl ester] | 38000 nM | 69000 nM | 95 nM |  | 
CC(C)(C)OC(=O)Cn1c(=O)c(-c2c(Cl)cccc2Cl)cc2cnc(N)nc21 [Example 36, [2-Amino-6-(2,6-dichlorophenyl)-7-oxo-7H-pyrido[2,3-d]-pyrimidin-8-yl]-acetic acid tert-butyl ester] | 7530 nM | 1450 nM | 560 nM |  | 
Cn1c(=O)c(-c2c(Cl)cccc2Cl)cc2cnc(NC3CCCCC3)nc21 [Example 60, 2-Cyclohexylamino-6-(2,6-dichlorophenyl)-8-methyl-8H-pyrido[2,3-d]pyrimidin-7-one] | 9380 nM | 6520 nM | 1640 nM |  | 
COc1cccc(Nc2ncc3cc(-c4c(Cl)cccc4Cl)c(=O)n(C)c3n2)c1 [Example 72, 6-(2,6-Dichlorophenyl)-2-(3-methoxyphenylamino)-8-methyl-8H-pyrido[2,3-d]pyrimidin-7-one] |  |  | 52 nM | 33 nM | 
CCOC(=O)c1cccc(Nc2ncc3cc(-c4c(Cl)cccc4Cl)c(=O)n(C)c3n2)c1 [Example 89, 3-[6-(2,6-Dichlorophenyl)-8-methyl-7-oxo-7,8-dihydro-pyrido[2,3-d]pyrimidin-2-ylamino]-benzoic acid, ethyl ester] | 1480 nM | 1490 nM | 14 nM |  | 
CCn1c(=O)c(-c2cc(C)cc(C)c2)cc2cnc(Nc3ccccc3)nc21 [Example 118, 6-(3,5-Dimethylphenyl)-8-ethyl-2-phenylamino-8H-pyrido[2,3-d]pyrimidin-7-one] |  |  |  |  | inhibition at 50 µM [1]: 12%; inhibition at 50 µM [2]: 29%; inhibition at 50 µM (C-src kinase): 0%
Cn1c(=O)c(-c2c(Cl)cccc2Cl)cc2cnc(NC(=O)CCC(=O)O)nc21 [Example 16] | 5450 nM | 6490 nM | 3100 nM |  | 

Reference: patent publication EP0823908B1, “PYRIDO[2,3-d]PYRIMIDINES FOR INHIBITING PROTEIN TYROSINE KINASE MEDIATED [sequence] PROLIFERATION” (Warner-Lambert Company LLC, priority 1995, dated 1996)
